Assay results: PubChem BioAssay AID1918932 (Molecular Pharmacology Branch, DTP, NCI, 2023)

Test system: 171881-019-R-J1-PDC complex spheroid viability
Assay: Anticancer human tumor 171881-019-R-J1-PDC patient-derived invasive breast carcinoma cell line growth inhibition
Settings: for IC50: curve of first compound; for viability, T/C: stronger effect = lower value
Outline: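 Multicellular complex spheroids of tumor cells with human endothelial cells (HUVEC) and mesenchymal stem cells; the LSD1 inhibitor iadademstat was combined with standard-of-care or investigational agents. Top concentration at or near clinical Cmax, half-log dilutions; final DMSO ≤0.25%.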

[1] = second compound 0.1 µM, first compound 0.0316 µM
[2] = second compound 0.1 µM, first compound 0.1 µM
[3] = second compound 0.1 µM, first compound 0.316 µM
[4] = second compound 0.1 µM, first compound 1 µM
[5] = second compound 0.1 µM, first compound 3.16 µM
[6] = second compound 0.1 µM, first compound 10 µM
[7] = second compound 0.316 µM, first compound 0.0316 µM
[8] = second compound 0.316 µM, first compound 0.1 µM
[9] = second compound 0.316 µM, first compound 0.316 µM
[10] = second compound 0.316 µM, first compound 1 µM
[11] = second compound 0.316 µM, first compound 3.16 µM
[12] = second compound 0.316 µM, first compound 10 µM
[13] = second compound 1 µM, first compound 0.0316 µM
[14] = second compound 1 µM, first compound 0.1 µM
[15] = second compound 1 µM, first compound 0.316 µM
[16] = second compound 1 µM, first compound 1 µM
[17] = second compound 1 µM, first compound 3.16 µM
[18] = second compound 1 µM, first compound 10 µM
[19] = second compound 3.16 µM, first compound 0.0316 µM
[20] = second compound 3.16 µM, first compound 0.1 µM
[21] = second compound 3.16 µM, first compound 0.316 µM
[22] = second compound 3.16 µM, first compound 1 µM
[23] = second compound 3.16 µM, first compound 3.16 µM
[24] = second compound 3.16 µM, first compound 10 µM
[25] = second compound 10 µM, first compound 0.0316 µM
[26] = second compound 10 µM, first compound 0.1 µM
[27] = second compound 10 µM, first compound 0.316 µM
[28] = second compound 10 µM, first compound 1 µM
[29] = second compound 10 µM, first compound 3.16 µM
[30] = second compound 10 µM, first compound 10 µM
[31] = second compound 0.1 µM, first compound 0.00316 µM
[32] = second compound 0.1 µM, first compound 0.01 µM
[33] = second compound 0.316 µM, first compound 0.00316 µM
[34] = second compound 0.316 µM, first compound 0.01 µM
[35] = second compound 1 µM, first compound 0.00316 µM
[36] = second compound 1 µM, first compound 0.01 µM
[37] = second compound 3.16 µM, first compound 0.00316 µM
[38] = second compound 3.16 µM, first compound 0.01 µM
[39] = second compound 10 µM, first compound 0.00316 µM
[40] = second compound 10 µM, first compound 0.01 µM
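Note: spheroids exposed to agents for 7 days after 3 days growth.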

Structure (SMILES)	IC50 (second compound 0.1 µM) [nM]	IC50 (second compound 0.316 µM) [nM]	IC50 (second compound 1 µM) [nM]	IC50 (second compound 3.16 µM) [nM]	IC50 (second compound 10 µM) [nM]	viability, T/C [1] [%]	viability, T/C [2] [%]	viability, T/C [3] [%]	viability, T/C [4] [%]	viability, T/C [7] [%]	viability, T/C [8] [%]	viability, T/C [9] [%]	viability, T/C [10] [%]	viability, T/C [13] [%]	viability, T/C [14] [%]	viability, T/C [15] [%]	viability, T/C [16] [%]	viability, T/C [19] [%]	viability, T/C [20] [%]	viability, T/C [21] [%]	further results
CC(C)c1c(-c2ccccc2)nc2c(C#N)c[nH]n2c1=O + NC1CCC(NC2CC2c2ccccc2)CC1	> 10000	> 10000	> 10000	> 10000	> 10000	89.7	75.8	82.7	92.2	90.7	93.3	82.6	96.1	93.8	81.3	85.5	100	96.1	90.5	94.3	viability, T/C [5]: 82.9%; viability, T/C [6]: 97.8%; viability, T/C [11]: 94%; viability, T/C [12]: 91.6%; viability, T/C [17]: 81.5%; viability, T/C [18]: 91.2%; viability, T/C [22]: 80.3%; viability, T/C [23]: 101%; viability, T/C [24]: 97.3%; viability, T/C [25]: 87.2%; viability, T/C [26]: 90.4%; viability, T/C [27]: 77.3%; viability, T/C [28]: 92.6%; viability, T/C [29]: 93.4%; viability, T/C [30]: 90.4%
CC1COCCN1c1cc(-c2ccnn2C)c2ccnc(-c3ccn[nH]3)c2n1 (stereo not given) + NC1CCC(NC2CC2c2ccccc2)CC1	10.2	9.5	10.5	13.6	13.7	18.8	8.26	6.58	5.76	19	8.72	6.3	6.44	24.1	10.6	6.7	7.53	25.7	9.54	7.15	viability, T/C [31]: 57%; viability, T/C [32]: 50.7%; viability, T/C [33]: 63.3%; viability, T/C [34]: 49.5%; viability, T/C [35]: 65.3%; viability, T/C [36]: 51.2%; viability, T/C [37]: 70.8%; viability, T/C [38]: 58.9%; viability, T/C [22]: 6.61%; viability, T/C [39]: 70%; viability, T/C [40]: 58.3%; viability, T/C [25]: 27.1%; viability, T/C [26]: 10.1%; viability, T/C [27]: 7.47%; viability, T/C [28]: 10.2%
COc1ccc([C@@H](O)c2cc(-c3ncnc4cc(N5CCOCC5)ccc34)c(F)cc2Cl)nn1 + NC1CCC(NC2CC2c2ccccc2)CC1	1210	1150	1060	1040	957	94.6	107	106	58.3	94.8	104	112	55.7	86.7	101	109	52.3	99.8	93.6	107	viability, T/C [5]: 11.3%; viability, T/C [6]: 6.63%; viability, T/C [11]: 10.6%; viability, T/C [12]: 5.9%; viability, T/C [17]: 10.4%; viability, T/C [18]: 5.85%; viability, T/C [22]: 51.3%; viability, T/C [23]: 9.78%; viability, T/C [24]: 5.03%; viability, T/C [25]: 103%; viability, T/C [26]: 115%; viability, T/C [27]: 108%; viability, T/C [28]: 47.6%; viability, T/C [29]: 7.96%; viability, T/C [30]: 3.23%
O=C(C=Cn1cnc(-c2cc(C(F)(F)F)cc(C(F)(F)F)c2)n1)NNc1cnccn1 + NC1CCC(NC2CC2c2ccccc2)CC1	< 3.16	< 3.16	< 3.16	< 3.16	< 3.16	5.39	2.15	2.24	2.08	6.07	2.35	6.21	2.25	6.8	2.59	2.63	4.14	6.64	2.73	2.91	viability, T/C [31]: 20%; viability, T/C [32]: 14.8%; viability, T/C [33]: 20.9%; viability, T/C [34]: 14.6%; viability, T/C [35]: 22.7%; viability, T/C [36]: 16.1%; viability, T/C [37]: 24.3%; viability, T/C [38]: 16.4%; viability, T/C [22]: 2.78%; viability, T/C [39]: 24.7%; viability, T/C [40]: 17.3%; viability, T/C [25]: 7.11%; viability, T/C [26]: 2.96%; viability, T/C [27]: 3.51%; viability, T/C [28]: 3.29%
